In test [1] the test system is BCL2 gene. As to the kind of experiment: RT-qPCR BCL2 gene expression in BEAS-2B. To be noted: Homo sapiens, 24 h, reference gene RPL41, vs untreated control, read-out: Relative level of expression, BCL2 gene. It counts as cell-based, Human. The procedure: (§1) Real-time polymerase chain reaction was performed for the reference gene RPL41 (ribosomal protein L41) and the tested genes: BCL2, AIFM2, MDM2, IL6 and IL8. […] The BEAS-2B line was selected for the experiment. The expression level of selected genes was measured after 24 h of incubation with the tested substances MJ1–MJ20 at a concentration of 100 μM (Table 3).
The RT-qPCR experiment was performed for the BEAS-2B cell line. In this experiment, the BCL2 gene was studied, and RPL41 was used as the reference gene (Figure 14).
(§2) Gene expression studies used quantitative RT-qPCR to assess the effect of the tested quinobenzothiazines (MJ1–MJ20) on the expression of apoptosis-related genes (BCL2, AIFM2, MDM2) and pro-inflammatory cytokines (IL6, IL8) (Table 4).
(§3) BEAS-2B and HCT116 cells were seeded in 6-well plates at 2 × 10^5 cells per well and cultured in RPMI-1640 (BEAS-2B) or DMEM (HCT116) medium supplemented with 10% FBS and 1% penicillin/streptomycin at 37 °C, 5% CO2 and 95% humidity. After 24 h of incubation, the tested compounds were added at a concentration of 100 µM. After 24 h, the medium was removed from the cells, washed with PBS solution, 0.5 mL of trypsin was added per well and after 5 min it was neutralized with medium. The obtained cell suspension was centrifuged for 3 min at 2000 rpm, the supernatant was removed, and the obtained pellet was suspended in 400 µL of phenozol. Samples were frozen at −20 °C and stored until further experiment and RNA isolation.
(§4) Total RNA was isolated from cells using the A&A Biotechnology Total RNA Mini kit according to the manufacturer’s protocol. RNA quality and quantity were assessed using a NanoDrop 2000 spectrophotometer at 260/280 nm. Reverse transcription was performed using the protocol (EURx NG dART RT Kit) to obtain cDNA. After incubation, samples were placed in a freezer (−20 °C) and stored until further analysis.
(§5) The experiment was performed according to the protocol (Brilliant III Ultra Fast SYBR® Green QPCR Master Mix, Quick Reference Guide for the Bio-Rad CFX96 Real-Time PCR Detection System). RT-qPCR reaction was performed using specific primers for target genes (BCL2, AIFM2, MDM2, IL6, IL8). Gene expression was normalized to the expression of the reference gene RPL41. Reaction profiles and results were performed using Bio-Rad CFX Maestro 1.1 software from Bio-Rad. Analysis and calculations of the results obtained during RT-qPCR were performed using Microsoft Excel.
(§6) The results were analyzed using the R = 2^−ΔΔCt method, which allows for determining the relative level of gene expression (R) compared to the control. Each experiment was performed in three technical and biological replicates. RT-qPCR allowed for precise assessment of changes in the expression of genes related to the processes of apoptosis and inflammatory response under the influence of quinobenzothiazines, which allowed for identifying their potential mechanisms of action at the molecular level.

For test [2], the system named is BEAS-2B. Nature of the test: Alamar Blue cytotoxicity test, BEAS-2B. It counts as cell-based, Human. The note with it: Homo sapiens, 24 h, 24 h incubation, read-out: IC50 values for BEAS-2B line. The procedure: The cytotoxicity of the tested chemical compounds MJ1–MJ20 was tested using the Alamar Blue test. The experiment was conducted on cell lines BEAS-2B (Figure 7), HCT116 (Figure 8), U2OS (Figure 9), MCF7 (Figure 10), SH-SY5Y (Figure 11), NHDF (Figure 12), and A549 (Figure 13). Cells were seeded in 96-well plates and incubated with the tested compounds for 24 h. The test result is the IC50 parameter, which is a measure of cytotoxic activity expressed by the concentration of the substance that causes the death of half of the analyzed cells compared to the control.
In cytotoxicity studies, the Alamar Blue test was used, which is based on the ability of living cells to reduce the non-fluorescent dye resazurin to fluorescent resorufin, which reflects the metabolic activity of cells. BEAS-2B, NHDF, HCT116, MCF7, A549, SH-SY5Y and U2OS cell lines were cultured under standard conditions, in DMEM medium supplemented with 10% FBS and 1% penicillin/streptomycin, at 37 °C, 5% CO2 and 95% humidity. Cells were seeded in 96-well plates at 1 × 10^4 cells per well and incubated for 24 h. Then, the tested compounds (MJ1–MJ20) were added at different concentrations (from 6.25 µM to 100 µM). The control contained cells untreated with the tested compounds. After 24 h of incubation, 10 µL of Alamar Blue solution was added to each well and incubated for another 2–4 h under the same conditions. The signal was measured spectrophotometrically at wavelengths of 570 nm (for resorufin) and 600 nm (for resazurin) or optionally fluorimetrically, using an excitation maximum of 570 nm and an emission maximum of 585 nm. The results were presented as percentage of cell survival relative to the control, calculating the ratio of absorbance or fluorescence of the sample to the control value. The Alamar Blue assay, due to its sensitivity and non-toxicity, allows for an accurate assessment of metabolic activity and cell survival in response to the tested quinobenzothiazines.

Test [3] has as its system IL8 gene. Nature of the test: RT-qPCR IL8 gene expression in BEAS-2B. The note with it: Homo sapiens, 24 h, reference gene RPL41, vs untreated control, read-out: Relative level of expression, IL8 gene. It counts as cell-based. The protocol: as §1
(§7) The RT-qPCR experiment was performed for the BEAS-2B cell line. In this experiment, the IL6 and IL8 genes were studied and RPL41 was used as a reference gene (Figure 17 and Figure 18).
as §2, §3, §4, §5, §6

For test [4], the system named is MDM2 gene. As to the kind of experiment: RT-qPCR MDM2 gene expression in BEAS-2B. It counts as cell-based, Human. To be noted: 24 h; for fold induction at 100 µM: Homo sapiens, reference gene RPL41, vs untreated control, read-out: Relative level of expression, MDM2 gene. The procedure:
as §1
The RT-qPCR experiment was performed for the BEAS-2B cell line. In this experiment, the MDM2 gene was studied and RPL41 was used as reference gene (Figure 15).
as §2, §3, §4, §5, §6

The test system of test [5] is AIFM2 gene. Nature of the test: RT-qPCR AIFM2 gene expression in BEAS-2B. It counts as cell-based, Human. To be noted: Homo sapiens, 24 h, reference gene RPL41, vs untreated control, read-out: Relative level of expression, AIFM2 gene. The procedure:
as §1
The RT-qPCR experiment was performed for the BEAS-2B cell line. In this experiment, the AIFM2 gene was studied and RPL41 was used as reference gene (Figure 16).
as §2, §3, §4, §5, §6

Test [6] has as its system IL6 gene. As to the kind of experiment: RT-qPCR IL6 gene expression in BEAS-2B. It counts as cell-based, Human. The note with it: Homo sapiens, 24 h, reference gene RPL41, vs untreated control, read-out: Relative level of expression, IL6 gene. The procedure:
as §1, §7, §2, §3, §4, §5, §6

Test [7] has as its system xenografted MGC-803 tumor. Also on record: method as in PMID 30345465. The note with it: oral study; cited from earlier work.
For test [8], the system named is MGC-803 gastric cancer cells. Also on record: method as in PMID 30345465. To be noted: cited from earlier work.

Regarding `CSc1ccc2c(c1)Sc1cc3ccccc3nc1N2Cc1cn(Cc2ccc(F)cc2)nn1` [MJ17, 9-Methylthio-6-((1-(4-fluorobenzyl)-1H-1,2,3-triazol-4-yl)methyl)-quino[3,2-b]-benzo[1,4]thiazine], the fold induction at 100 µM in test [1] amounted to 33.9; in test [3], 5.7; in test [4], 11; in test [5], 2.5; in test [6], 28. Also, in test [2], the half-maximal inhibitory concentration (IC50) turned out to be 72.6 µM. In addition, in test [4] (100 μM, compared to control), the MDM2 expression increase was 11.0 fold.

As for `c1ccc(Cn2cc(CN3c4ccccc4Sc4cc5ccccc5nc43)nn2)cc1` [MJ1], the fold induction at 100 µM in test [1] came to 23; in test [3] it was 0.3; in test [4] it was 5.4; in test [5], 2.4; in test [6] it was 3. For the same compound, the concentration for half-maximal inhibition (IC50) in test [2] worked out at 73.8 µM.

For the compound `COc1ccc(-n2cc(CN3c4ccccc4Sc4ccccc43)nn2)cc1` [compound A], the “Growth of xenografted MGC-803 tumor in vivo” value in test [7] is listed as “effectively inhibit the growth”. The half-inhibitory concentration (IC50) in test [8] was 1.2 µM.

As for `CSc1ccc2c(c1)Sc1cc3ccccc3nc1N2Cc1cn(Cc2ccc(Cl)cc2)nn1` [MJ18, 9-Methylthio-6-[(1-(4-chlorobenzyl)-1H-1,2,3-triazol-4-yl)methyl]-quino[3,2-b]-benzo[1,4]thiazine], the fold induction at 100 µM turned out to be 41.5 in test [1]; 4 in test [3]; 7.1 in test [4]; 1.7 in test [5]; 20.5 in test [6]. For the same compound, in test [2], the IC50 came to 74.1 µM.

With `Fc1ccc2c(c1)Sc1cc3ccccc3nc1N2Cc1cn(CSc2ccccc2)nn1` [MJ10, 9-Fluoro-6-((1-((phenylthio)methyl)-1H-1,2,3-triazol-4-yl)methyl)-quino[3,2-b]-benzo[1,4]thiazine], the fold induction at 100 µM came to 10.6 in test [1]; 5.7 in test [3]; 3.6 in test [4]; 3.1 in test [5]; 5.6 in test [6]. Further, the IC50 in test [2] is 72.3 µM.

Turning to `Clc1ccc2c(c1)Sc1cc3ccccc3nc1N2Cc1cn(Cc2ccccc2)nn1` [MJ11, 9-Chloro-6-[(1-benzyl-1H-1,2,3-triazol-4-yl)-methyl]-quino[3,2-b]benzo[1,4]thiazine], the fold induction at 100 µM in test [1] came to 49.9; in test [3] it was 1.4; in test [4] it was 4.6; in test [5], 0.8; in test [6], 5.7. The half-maximal inhibitory concentration (IC50) in test [2] is 88.1 µM.
